From US6756210B2, “Linoleic acid diol and glucuronide conjugate levels as diagnostic markers of disorders of abnormal regulation of cytochrome P450 metabolism of unsaturated fatty acids” (The Regents of the University of California, priority 2001, dated 2004)
Read-outs that look alike come from different tables or passages of the source.

Assays:
[1] = target: T1, recombinant mouse sEH (MsEH) (Mus musculus, UniProt P34914); test: Inhibition of recombinant mouse sEH (MsEH); assay type: biochemical
T1 sequence (P34914 1-554): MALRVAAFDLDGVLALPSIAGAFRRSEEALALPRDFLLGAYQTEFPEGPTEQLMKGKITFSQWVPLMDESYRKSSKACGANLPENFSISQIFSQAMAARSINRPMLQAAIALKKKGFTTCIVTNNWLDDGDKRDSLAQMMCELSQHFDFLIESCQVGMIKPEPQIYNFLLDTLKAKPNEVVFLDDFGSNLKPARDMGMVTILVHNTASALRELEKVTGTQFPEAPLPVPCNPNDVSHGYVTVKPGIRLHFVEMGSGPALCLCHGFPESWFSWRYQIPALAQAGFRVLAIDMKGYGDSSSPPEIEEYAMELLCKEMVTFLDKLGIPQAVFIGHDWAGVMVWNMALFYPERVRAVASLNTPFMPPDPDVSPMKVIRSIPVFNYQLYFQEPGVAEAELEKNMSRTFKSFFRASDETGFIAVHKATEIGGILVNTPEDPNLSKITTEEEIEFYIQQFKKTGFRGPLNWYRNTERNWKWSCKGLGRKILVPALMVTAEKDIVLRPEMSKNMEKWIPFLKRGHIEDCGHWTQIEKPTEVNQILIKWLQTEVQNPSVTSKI

Human sEH (HsEH) = target: T2, Human sEH (HsEH) (Homo sapiens, UniProt P34913); test: Inhibition of recombinant human sEH (HsEH); assay type: biochemical; settings: HsEH 0.26 μM
T2 sequence (P34913 1-555): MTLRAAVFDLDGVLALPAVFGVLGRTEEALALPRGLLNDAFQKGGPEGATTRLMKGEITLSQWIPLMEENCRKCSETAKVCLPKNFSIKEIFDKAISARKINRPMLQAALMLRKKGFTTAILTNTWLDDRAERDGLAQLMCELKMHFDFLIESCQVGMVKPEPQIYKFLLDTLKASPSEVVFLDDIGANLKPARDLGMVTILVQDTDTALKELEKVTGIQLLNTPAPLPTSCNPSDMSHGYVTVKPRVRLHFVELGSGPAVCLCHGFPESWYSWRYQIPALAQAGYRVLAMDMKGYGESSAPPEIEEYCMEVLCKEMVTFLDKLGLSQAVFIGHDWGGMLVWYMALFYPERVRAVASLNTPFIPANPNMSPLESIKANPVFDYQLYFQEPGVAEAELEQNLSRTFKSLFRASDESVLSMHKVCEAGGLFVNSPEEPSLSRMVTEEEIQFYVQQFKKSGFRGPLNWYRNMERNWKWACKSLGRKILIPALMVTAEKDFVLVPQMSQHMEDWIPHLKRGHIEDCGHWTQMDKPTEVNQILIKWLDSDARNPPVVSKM

[2] = Table 1, MsEH 0.13 μM, read-out: Mouse sEH IC50
[3] = Table 2, MsEH 0.13 μM, read-out: Mouse sEH IC50

Row | Structure (SMILES) | IC50 [1, 2] [µM] | IC50 (Human sEH (HsEH); Table 1) [µM] | IC50 [1, 3] [µM] | IC50 (Human sEH (HsEH); Table 2) [µM] | IC50 [1] [µM]
1 | COC(c1ccccc1)C1OC1c1ccc(-c2ccccc2)cc1 (racemic) [R=4-C6H5—C6H4, R′=C6H5, X—Y=CH—OCH3, ±] |  |  | 0.48 ± 0.05 | 1.36 ± 0.07 | 
2 | [O-][S+](c1ccccc1)C1OC1c1ccc(-c2ccccc2)cc1 (racemic) [R=4-C6H5—C6H4, R′=C6H5, X—Y=S═O, ±] |  |  | 73 ± 5 | 70 ± 3 | 
3 | Cc1ccc(C(=O)C2OC2c2ccc(-c3ccccc3)cc2)cc1 (racemic) [R=4-C6H5—C6H4, R′=4-CH3—C6H4, X—Y=C═O, ±] |  |  | 0.1 ± 0.01 | 0.19 ± 0.03 | 
4 | Cc1ccc(NC(=O)NC2CCCCC2)cc1 [compound 108] | 0.13 ± 0.01 | 0.17 ± 0.01 |  |  | 
5 | O=C(NCC12CC3CC(CC(C3)C1)C2)NC12CC3CC(CC(C3)C1)C2 [compound 412] | 0.05 ± 0.01 | 0.1 ± 0.01 |  |  | 
6 | CC(O)C1OC1c1ccc([N+](=O)[O-])cc1 (racemic) [R=4-NO2—C6H4, R′=CH3, X—Y=CH—OH, ±] |  |  | 6.5 ± 0.2 | 39 ± 1 | 
7 | O=C(Nc1ccc([N+](=O)[O-])cc1)NC1CCCCC1 [compound 38] | 0.17 ± 0.01 | 0.36 ± 0.02 |  |  | 
8 | CC1CCC(C(C)C)C(OC(=O)NC2CCCCC2)C1 (stereo not shown) [compound 261] | 0.08 ± 0.01 | 0.12 ± 0.01 |  |  | 
9 | COC(c1ccccc1)C1OC1c1ccccc1 (racemic) [R=C6H5, R′=C6H5, X—Y=CH—OCH3, ±] |  |  | 103 ± 5 | 34 ± 1 | 
10 | CC(=O)C1OC1c1ccc([N+](=O)[O-])cc1 (racemic) [R=4-NO2—C6H4, R′=CH3, X—Y=C═O, ±] |  |  | 163 ± 11 | 269 ± 5 | 
11 | O=C(NC1CCCCC1)OCc1c2ccccc2cc2ccccc12 [compound 263] | 3 ± 0.3 | 0.33 ± 0.06 |  |  | 
12 | CCCCCCCCNC(=O)Nc1ccccc1 [compound 151] |  | 0.58 ± 0.01 |  |  | 2.29 ± 0.03
13 | Nc1ccc(NC(=O)NC2CCCCC2)cc1 [compound 385] | 0.17 ± 0.02 | 2.2 ± 0.1 |  |  | 
14 | CC(C)(C)c1ccc(NC(=O)NC2CCCCC2)cc1 [compound 75] | 0.06 ± 0.01 | 0.23 ± 0.01 |  |  | 
15 | O=C(Nc1cccc(Cl)c1)NC1CCCCC1 [compound 44] | 0.07 ± 0.01 |  |  |  | 
16 | O=C(Nc1c2ccccc2nc2ccccc12)NC1CCCCC1 [compound 559] | 0.08 ± 0.01 | 0.14 ± 0.01 |  |  | 
17 | O=C(CC1CCCCC1)NC1CCCCC1 [compound 187] | 0.05 ± 0.01 | 0.42 ± 0.03 |  |  | 
18 | O=C(NCc1ccc([N+](=O)[O-])cc1)NC1CCCCC1 [compound 341] | 2.3 ± 0.3 | 4.3 ± 0.4 |  |  | 
19 | OC(c1ccccc1)C1OC1c1ccc(F)cc1 (racemic) [R=4-F-C6H4, R′=C6H5, X—Y=CH—OH, ±] |  |  | 72 ± 16 | 18 ± 2 | 
20 | O=C(NCC1CCCCC1)NC12CC3CC(CC(C3)C1)C2 [compound 437] | 0.05 ± 0.01 | 0.1 ± 0.01 |  |  | 
21 | O=C(c1ccccc1)C1OC1c1ccc(-c2ccccc2)cc1 (racemic) [R=4-C6H5—C6H4, R′=C6H5, X—Y=C═O, ±] |  |  | 0.14 ± 0.01 | 0.2 ± 0.01 | 
22 | CC(C)c1ccc(NC(=O)NC2CCCCC2)cc1 [compound 66] | 0.09 ± 0.01 |  |  |  | 
23 | O=[N+]([O-])c1ccc([C@H]2O[C@@H]2CO)cc1 [R=4-NO2—C6H4, R′=H, X—Y=CH—OH, R, R] |  |  | 1200 ± 25 |  | 
24 | O=[N+]([O-])c1ccc([C@@H]2O[C@H]2CO)cc1 [R=4-NO2—C6H4, R′=H, X—Y=CH—OH, S, S] |  |  | 1.6 ± 0.6 |  | 
25 | O=[N+]([O-])c1ccc(C2OC2CO)cc1 (racemic) [R=4-NO2—C6H4, R′=H, X—Y=CH—OH, ±] |  |  | 5 ± 1 |  | 
26 | O=C(NC1CCCCCCC1)NC1CCCCC1 [compound 58] | 0.05 ± 0.01 |  |  |  | 
27 | OC[C@H]1O[C@@H]1c1ccccc1 [R=C6H5, R′=H, X—Y=CH—OH, R, R] |  |  | 1100 ± 23 |  | 
28 | OC[C@@H]1O[C@H]1c1ccccc1 [R=C6H5, R′=H, X—Y=CH—OH, S, S] |  |  | 2400 ± 46 |  | 
29 | O=C(Nc1ccc(Cl)c(Cl)c1)Nc1ccc(Cl)c(Cl)c1 [compound 299] |  | 0.26 |  |  | 

Continued, in another order:

Row | IC50 [1, 2] [µM] | IC50 (Human sEH (HsEH); Table 1) [µM] | IC50 [1, 3] [µM] | IC50 (Human sEH (HsEH); Table 2) [µM] | Structure (SMILES) | IC50 [1] [µM]
30 | 0.06 ± 0.01 | 0.53 ± 0.03 |  |  | O=C(NCC1CCCCC1)Nc1ccccc1 [compound 176] | 
31 | 0.05 ± 0.01 | 0.1 ± 0.01 |  |  | CCCCCCCCCCCCCNC(=O)NC1CCCCC1 [compound 354] | 
32 | 0.05 ± 0.01 | 1.9 ± 0.1 |  |  | O=C(NCc1ccccc1)NC1CCCCC1 [compound 270] | 
33 | 0.11 ± 0.01 | 0.48 ± 0.01 |  |  | CCCCCCCCNC(=O)OC [compound 72] | 
34 | 0.12 ± 0.01 | 0.18 ± 0.01 |  |  | CCCCCCCCNC(=O)Nc1cccc(Cl)c1 [compound 170] | 
35 | 0.09 ± 0.01 | 0.72 ± 0.02 |  |  | CCCCCCCCNC(=O)NCCCCC [compound 125] | 
36 | 0.05 ± 0.01 | 1 ± 0.2 |  |  | COc1ccc(CCNC(=O)NC2CCCCC2)cc1OC [compound 384] | 
37 | 0.06 ± 0.01 | 0.1 ± 0.01 |  |  | CC(C)c1ccc(NC(=O)NCC2CCCCC2)cc1 [compound 180] | 
38 | 0.25 ± 0.03 | 2.2 ± 0.1 |  |  | O=C(NCCC1=CCCCC1)NCc1ccccc1 [compound 471] | 
39 | 0.12 ± 0.01 | 2.2 ± 0.1 |  |  | CC(C)CNC(=O)NC1CCCCC1 [compound 103] | 
40 | 0.42 ± 0.01 | 0.55 ± 0.02 |  |  | O=C(NCCc1cnc[nH]1)NC1CCCCC1 [compound 461] | 
41 | 0.18 ± 0.01 | 0.11 ± 0.01 |  |  | CC(C)(C)CC(C)(C)NC(=O)NC1C2CC3CC(C2)CC1C3 (stereo not shown) [compound 375] | 
42 | 0.05 ± 0.01 | 0.1 ± 0.01 |  |  | O=C(O)CCCCCCCCCCCNC(=O)NC1CCCCC1 [compound 425] | 
43 | 0.1 ± 0.02 | 0.28 ± 0.01 |  |  | CCCNC(=O)Nc1cccc2ccccc12 [compound 253] | 
44 | 0.19 ± 0.05 |  |  |  | CCCCCCCCCCCCCC(=O)NC1CCCCC1 [compound 515] | 
45 | 0.9 ± 0.07 | 8.3 ± 0.4 |  |  | O=C(NCCNc1ccccc1)NC1CCCCC1 [compound 463] | 
46 | 0.06 ± 0.01 | 0.1 ± 0.01 |  |  | CCCCCCCCCCNC(=O)NC1CCCCC1 [compound 153] | 

Row | IC50 [1, 2] [µM] | IC50 (Human sEH (HsEH); Table 1) [µM] | IC50 [1, 3] [µM] | IC50 (Human sEH (HsEH); Table 2) [µM] | Structure (SMILES) | IC50 [1] [µM]
47 | 0.05 ± 0.01 | 0.26 ± 0.02 |  |  | CCCCCCCCCCCCNC(=O)NCC(C)C [compound 478] | 
48 | 0.11 ± 0.01 | 0.24 ± 0.01 |  |  | CCCCCCCCCCCCCCNC(=O)NC1CCCCC1 [compound 477] | 
49 | 0.05 ± 0.01 | 0.18 ± 0.01 |  |  | Cc1cccc(C)c1NC(=O)NC1CCCCC1 [compound 435] | 
50 | 0.6 ± 0.06 | 5 ± 0.1 |  |  | CCC(C)NC(=O)NC1CCCCC1 (stereo not shown) [compound 479] | 
51 | 0.05 ± 0.01 | 0.14 ± 0.01 |  |  | CC(C)(C)OC(=O)NCCNC(=O)NC1CCCCC1 [compound 124] | 
52 | 0.1 ± 0.02 | 0.18 ± 0.01 |  |  | O=C(NC1CCCCC1)OCCCCc1ccc([N+](=O)[O-])cc1 [compound 460] | 
53 | 0.05 ± 0.01 | 0.1 ± 0.01 |  |  | O=C(NCCC1=CCCCC1)NC1CCCCC1 [compound 359] | 
54 | 0.06 ± 0.01 | 0.92 ± 0.08 |  |  | CCCCCNC(=O)NC1CCCCC1 [compound 509] | 
55 | 0.05 ± 0.01 | 2.5 ± 0.08 |  |  | O=C(NCCCCCCO)NC1CCCCC1 [compound 344] | 
56 | 0.52 ± 0.02 | 1.71 ± 0.23 |  |  | CCCCCCCCNC(=O)NC1CCC1 [compound 181] | 
57 | 0.2 ± 0.01 | 0.48 ± 0.01 |  |  | CC(C)c1ccc(NC(=O)NCCc2ccccc2)cc1 [compound 156] | 
58 | 0.73 ± 0.08 | 2.5 ± 0.03 |  |  | O=C(NCc1ccncc1)NC1CCCCC1 [compound 188] | 
59 | 0.05 ± 0.01 | 0.1 ± 0.01 |  |  | CCCCCCCNC(=O)NC1CCCCC1 [compound 508] | 
60 | 0.06 ± 0.01 | 0.12 ± 0.01 |  |  | CCCCCCCCNC(=O)NC1CCCCC1 [compound 168] | 
61 |  | 0.24 ± 0.01 |  |  | CCCCCCCCNC(=O)NCCCCCC [compound 175] | 
62 | 0.27 ± 0.01 |  |  |  | CCCCCCCCCCCCNC(=O)OC1CCCCC1 [compound 514] | 
